Values quoted from earlier work as cited in patent EP0665714B1, “GRANULAR WATER SOLUBLE OR HYGROSCOPIC AGRICULTURAL FORMULATIONS AND METHODS OF MAKING THEM” (BASF CORPORATION, priority 1992, dated 1994).

Details: in general

C[N+]1(C)CCCCC1.[Cl-] [mepiquat chloride, 1,1-dimethylpiperidinium chloride]
water solubility: more than 600 g/l
